Experiment [1] concerns FaDu (human head and neck cancer cells). Kind of experiment: In vivo tumor growth inhibition, FaDu xenograft. Details: species or system BALB/c nude mice. How it is done:
FaDu (human head and neck cancer cells): Female 6-8 weeks old BALB/c nude mice were inoculated subcutaneously on the right flank with FaDu tumor cells (5×10^6) in 0.1 ml of EMEM medium without serum for tumor development. The treatments were started when the mean tumor size reached approximately 194 mm^3 at Day 21 post inoculation and continued until end of study by twice daily oral gavage dosing of HC-7366 at listed doses (vehicle, 0.3 mg/kg HC-7366, 1 mg/kg HC-7366, 3 mg/kg HC-7366, 10 mg/kg HC-7366, or 30 mg/kg HC-7366, FIG. 11-13).
(§1) [formula] • 2.2.2 Tumor Measurements: The measurement of tumor size was conducted three times weekly with a caliper and recorded. The tumor volume (mm^3) was estimated using the formula: TV=a×b^2/2, where “a” and “b” is long and short diameters of a tumor, respectively. Tumor volume was calculated using the formula [tumor volume (mm^3)=π/6×length×width^2).
(§2) Regression was calculated using the formula=100×ΔT/T initial, if ΔT<0. Animals with 0 mm^3 tumor volume (no measurable tumor) for three consecutive measurements were considered as complete responders and animals with 50% tumor regressions were partial responders.

For experiment [2], the system named is HT1080 (human fibrosarcoma cells). Kind of experiment: In vivo tumor growth inhibition, HT1080 xenograft. More on the design: species or system BALB/c nude mice. Particulars: both 1 and 3 mg/kg, oral gavage. How it is done: HT1080 (human fibrosarcoma cells): Female 6-8 weeks old BALB/c nude mice were inoculated subcutaneously on the right flank with HT1080 tumor cells (1×10^7) in 0.1 ml of EMEM medium without serum for tumor development. The treatments were started when the mean tumor size reached approximately 109 mm^3 at Day 4 post inoculation and continued until end of study by oral gavage dosing of HC-7366 at listed doses (vehicle, 0.3 mg/kg HC-7366 BID (two times per day), 1 mg/kg HC-7366 BID, 3 mg/kg HC-7366 BID, 0.6 mg/kg HC-7366 QD (one time per day), 2 mg/kg HC-7366 QD, or 6 mg/kg HC-7366 QD, FIGS. 6-7).
as §1, §2

Experiment [3] relates to ASNS, PSAT1, PHGDH, PUMA, S100A8/A9 in KG-1 tumors. In words: Tumor IHC, KG-1 tumors. The format is in vivo, NOD SCID mice. How it is done:
Immunohistochemical analysis was carried out on tumors that were collected at the end of the study described in Example 6. Formalin-fixed paraffin-embedded samples were sectioned at 5 μm thickness and mounted on Superfrost Plus microscope slides (Fisher Scientific). All immunohistochemical (IHC) staining was performed on Bond Rx auto-stainer (Leica Biosystems) using the conventional TSA-amplified detection system. Primary antibodies used were as follows: a-ASNS (Cell Signaling Technology #92479), a-PUMA (Cell Signaling Technology #98672), a-PSAT1 (Proteintech #10501-1-AP), a-PHGDH (Proteintech #14719-1-AP), HIF-1a-Novus Biologicals NB 100-479, HIF-2a-Novus Biologicals NB100-122SS, and GLUT-1-EMB Biosciences 07-1401. TSA-conjugated Alexa488, Alexa 568 and Alexa647 fluorophores from Invitrogen (#B40953, #B40956, and #B40958) were used at 1:500 dilution. Slides were counterstained with DAPI and cover slipped using Mowiol anti-fade mounting media (Sigma #D2522).
Slides were imaged with Aperio Versa 200 (Leica Biosystems) whole-slide scanner using 10×/0.32NA objective, and the data were analyzed using custom-written macros in ImageJ/FIJI (NIH). Briefly, 150 μm of outer edges of the tumor sections and necrotic regions (determined by lack of 4′,6-diamidino-2-phenylindole (DAPI) signal or presence of condensed DNA) were eliminated from the analysis. Gaussian-blurred DAPI channel was used to measure the area of the tumor tissue. Scans of immune-staining were processed to remove background, then total intensity value above appropriate threshold levels was measured and normalized to tissue area. All graphing and statistics (one-way ANOVA and pair-wise comparisons) were performed using Prism GraphPad.
Slides were deparaffinized, rehydrated and heat mediated antigen retrieval was conducted with AR6 buffer (Akoya). Slides were blocked with Roche diagnostics antibody diluent (Fisher) and stained with primary antibodies for 1 hr at 110 rpm. After washing, horseradish peroxidase (HRP)-conjugated secondary antibodies were added for 10 mins at 110 rpm. After washing, OPAL detection dye (Akoya) was added for a static 10 min incubation. Antigen retrieval was performed post OPAL staining, followed by DAPI staining and slide covering. Multispectral images were captured on the Polaris imaging system (Akoya) and spectral unmixing, cell segmentation and phenotyping was performed using Inform Tissue Finder software (Akoya). Imaging data was converted into .csv files and imported into Flowjo for analysis of S100A8/A9 percent positive cells. Primary antibodies used were rabbit anti-human/mouse S100A8/A9 (Clone RM1038, Abcam ab288715, paired with Opal 570).

In experiment [4] the test system is LNCaP (human prostate cancer cells). In words: In vivo tumor growth inhibition, LNCaP xenograft. Details: species or system NOD SCID mice. Conditions: ≥3 mg/kg twice daily oral. How it is done: LNCaP (human prostate cancer cells): Male 6-8 weeks old NOD SCID mice were inoculated subcutaneously on the right flank with LNCaP tumor cells (1×10^7) in 0.1 ml with Matrigel (1:1) in RPMI1640 with 10% fetal bovine serum (FBS) for tumor development. The treatments were started when the mean tumor size reached approximately 207 mm^3 at Day 14 post inoculation and continued until end of study by twice daily oral gavage dosing of HC-7366 at listed doses (vehicle, 0.3 mg/kg HC-7366, 1 mg/kg HC-7366, 3 mg/kg HC-7366, 10 mg/kg HC-7366, or 30 mg/kg HC-7366 twice daily, FIG. 14).
as §1, §2

For experiment [5], the system named is human AML cells of model CTG-2229. Kind of experiment: AML PDX in vivo study, flow cytometry of blood, spleen, bone marrow. Details: species or system NCG mice. Conditions: 1 mg/kg PO/BID×28, all tissues. The protocol:
Sub-lethally irradiated NCG mice were inoculated with 2×10^6 human AML cells of model CTG-2229. Mice were monitored post AML inoculation to assess human AML engraftment using huCD45/muCD45/huCD33/huCD3 antibodies and BD TruCount™ beads. When individual animals had ≥20% live huCD45 cells in the bone marrow, they were randomized to treatment cohorts. For the efficacy study, animals were administered (n=13/group) with vehicle control, HC-7366 at 1 mg/kg, 10 mg/kg or 30 mg/kg PO/BID×28, or Venetoclax at 100 mg/kg PO/QD×28. Terminal blood, spleen, and bone marrow samples were collected for flow cytometry (FIG. 87). Tolerability was assessed by body weight loss, lethality, and clinical signs of adverse treatment-related side effects. Body weights were measured twice weekly.
(A flow cytometer gives signals particle by particle.)

The mark [6] stands for this setting: end of study (day 27), highest induction at 1 and 3 mg/kg.

In the case of `CNC(=O)c1ncn2cc(-c3c(F)ccc(NS(=O)(=O)c4cc(Cl)cnc4OC)c3F)ncc12` [HC-7366, 6-(3-((5-chloro-2-methoxypyridine)-3-sulfonamido)-2,6-difluorophenyl)-N-methylimidazo[1,5-a]pyrazine-1-carboxamide], in experiment [1] (1 mg/kg twice daily oral), the tumor regression is 33%. For the same molecule, the TGI entry in experiment [1] (all doses) is recorded as “significant TGI”. Also, the tumor growth inhibition result in experiment [2] was “up to 80%”. For the same molecule, the “protein levels of S100A8/A9” value in experiment [3] (1 and 3 mg/kg doses, day 27) is reported as “potently reduced”. Further, in experiment [3] (day 27), the PUMA levels result was “not changed”. For the same molecule, in experiment [3] (setting [6]), the “ASNS by IHC” value is “potently induced”, the “PHGDH by IHC” value was “potently induced” and the “PSAT1 by IHC” value is on record as “potently induced”. Further, the tumor growth inhibition in experiment [4] was 61-65%. Also, the “myeloid restricted precursor (CD34+CD33+) and mature myeloid cells (CD34−CD33+)” value in experiment [5] is “significantly decreased”.

The values are drawn from patent US20250339426A1, “GCN2 MODULATOR FOR TREATING CANCER” (HIBERCELL, INC., priority 2022, published 2025).
